Legend:
Assay type in all cases: in vivo
[1] = test system: barnyardgrass (Echinochloa crus-galli); test: Test G Pre-Emergence Protocol; settings: Echinochloa crus-galli, pre-emergence, 312 h, evaluated after 13 days; for pest or weed control at 15.625 g/ha: 15.625 g ai/ha, read-out: Barnyard grass damage rating (100=total damage to plant; 0=no damage to plant); for pest or weed control at 62.5 g/ha: 62.5 g ai/ha, 100=total damage to plant, 0=no damage to plant, read-out: plant damage rating, Barnyardgrass; for pest or weed control at 250 g/ha: 250 g ai/ha, read-out: Barnyardgrass damage rating (100=total damage to plant; 0=no damage to plant)
Summary of the method: (§1)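 Test compound in 0.5% Tween 20 acetone/water (50:50) was applied at three rates (15.625, 62.5, 250 g/ha) to soil sown one day earlier. After 13 days plants were scored for injury, where 0 means unaffected and 100 means completely damaged.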

corn (Zea mays) [2] = test: Test G Pre-Emergence Protocol; settings: Zea mays, pre-emergence, 312 h, evaluated after 13 days; for plant injury at 15.625 g/ha: 15.625 g ai/ha; for plant injury at 15.625 g/ha / plant injury at 250 g/ha: read-out: Corn damage rating (100=total damage to plant; 0=no damage to plant); for plant injury at 62.5 g/ha: 62.5 g ai/ha, 100=total damage to plant, 0=no damage to plant, read-out: plant damage rating, Corn; for plant injury at 250 g/ha: 250 g ai/ha
Summary of the method: as §1

[3] = test system: giant foxtail (Setaria faberi); test: Test G Pre-Emergence Protocol; settings: Setaria faberi, pre-emergence, 312 h, evaluated after 13 days; for pest or weed control at 15.625 g/ha: 15.625 g ai/ha; for pest or weed control at 15.625 g/ha / pest or weed control at 250 g/ha: read-out: Foxtail, Giant damage rating (100=total damage to plant; 0=no damage to plant); for pest or weed control at 62.5 g/ha: 62.5 g ai/ha, 100=total damage to plant, 0=no damage to plant, read-out: plant damage rating, Foxtail, Giant; for pest or weed control at 250 g/ha: 250 g ai/ha
Summary of the method: as §1

[4] = test system: ivy-leaved morning glory (Ipomoea hederacea); test: Test G Pre-Emergence Protocol; settings: Ipomoea, pre-emergence, 312 h, evaluated after 13 days; for pest or weed control at 15.625 g/ha: 15.625 g ai/ha, read-out: Morning-glory, Ivy-leaved damage rating (100=total damage to plant; 0=no damage to plant); for pest or weed control at 62.5 g/ha: 62.5 g ai/ha, 100=total damage to plant, 0=no damage to plant, read-out: plant damage rating, Morningglory, Ivy-leaved; for pest or weed control at 250 g/ha: 250 g ai/ha, read-out: Morningglory, Ivy-leaved damage rating (100=total damage to plant; 0=no damage to plant)
Summary of the method: as §1

[5] = test system: redroot pigweed (Amaranthus retroflexus); test: Test G Pre-Emergence Protocol; settings: Amaranthus retroflexus, pre-emergence, 312 h, evaluated after 13 days; for pest or weed control at 15.625 g/ha: 15.625 g ai/ha; for pest or weed control at 15.625 g/ha / pest or weed control at 250 g/ha: read-out: Pigweed, Redroot damage rating (100=total damage to plant; 0=no damage to plant); for pest or weed control at 62.5 g/ha: 62.5 g ai/ha, 100=total damage to plant, 0=no damage to plant, read-out: plant damage rating, Pigweed, Redroot; for pest or weed control at 250 g/ha: 250 g ai/ha
Summary of the method: as §1

[6] = test system: velvetleaf (Abutilon theophrasti); test: Test G Pre-Emergence Protocol; settings: Abutilon theophrasti, pre-emergence, 312 h, evaluated after 13 days; for pest or weed control at 15.625 g/ha: 15.625 g ai/ha; for pest or weed control at 15.625 g/ha / pest or weed control at 250 g/ha: read-out: Velvetleaf damage rating (100=total damage to plant; 0=no damage to plant); for pest or weed control at 62.5 g/ha: 62.5 g ai/ha, 100=total damage to plant, 0=no damage to plant, read-out: plant damage rating, Velvetleaf; for pest or weed control at 250 g/ha: 250 g ai/ha
Summary of the method: as §1

[7] = test system: barnyardgrass (Echinochloa crus-galli); test: Test G Post-Emergence Protocol; settings: Echinochloa crus-galli, post-emergence, 312 h; for pest or weed control at 15.625 g/ha: 15.625 g ai/ha, evaluated after 13 days (100=total damage to plant; 0=no damage to plant), read-out: Barnyardgrass damage rating; for pest or weed control at 62.5 g/ha: 62.5 g ai/ha, read-out: Barnyardgrass damage rating (100=total damage to plant; 0=no damage to plant); for pest or weed control at 62.5 g/ha / pest or weed control at 250 g/ha: evaluated after 13 days; for pest or weed control at 250 g/ha: 250 g ai/ha, read-out: damage to plant, Barnyardgrass (100=total damage to plant; 0=no damage to plant)
Summary of the method: (§2)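 Values are percent visual injury at 13 days after treatment (0 none, 100 total). Treatment was a post-emergence spray at 15.625, 62.5 or 250 g/ha on 8-day-old pot plants kept at 24/16 °C.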

corn (Zea mays) [8] = test: Test G Post-Emergence Protocol; settings: Zea mays, post-emergence, 312 h; for plant injury at 15.625 g/ha: 15.625 g ai/ha, evaluated after 13 days (100=total damage to plant; 0=no damage to plant), read-out: Corn damage rating; for plant injury at 62.5 g/ha: 62.5 g ai/ha, read-out: Corn damage rating (100=total damage to plant; 0=no damage to plant); for plant injury at 62.5 g/ha / plant injury at 250 g/ha: evaluated after 13 days; for plant injury at 250 g/ha: 250 g ai/ha, read-out: damage to plant, Corn (100=total damage to plant; 0=no damage to plant)
Summary of the method: as §2

[9] = test system: giant foxtail (Setaria faberi); test: Test G Post-Emergence Protocol; settings: Setaria faberi, post-emergence, 312 h; for pest or weed control at 15.625 g/ha: 15.625 g ai/ha, evaluated after 13 days (100=total damage to plant; 0=no damage to plant), read-out: Foxtail, Giant damage rating; for pest or weed control at 62.5 g/ha: 62.5 g ai/ha, read-out: Foxtail, Giant damage rating (100=total damage to plant; 0=no damage to plant); for pest or weed control at 62.5 g/ha / pest or weed control at 250 g/ha: evaluated after 13 days; for pest or weed control at 250 g/ha: 250 g ai/ha, read-out: damage to plant, Foxtail, Giant (100=total damage to plant; 0=no damage to plant)
Summary of the method: as §2

[10] = test system: ivy-leaved morning glory (Ipomoea hederacea); test: Test G Post-Emergence Protocol; settings: Ipomoea, post-emergence, 312 h; for pest or weed control at 15.625 g/ha: 15.625 g ai/ha, evaluated after 13 days (100=total damage to plant; 0=no damage to plant), read-out: Morningglory, Ivy-leaved damage rating; for pest or weed control at 62.5 g/ha: 62.5 g ai/ha, read-out: Morningglory, Ivy-leaved damage rating (100=total damage to plant; 0=no damage to plant); for pest or weed control at 62.5 g/ha / pest or weed control at 250 g/ha: evaluated after 13 days; for pest or weed control at 250 g/ha: 250 g ai/ha, read-out: damage to plant, Morningglory, Ivy-leaved (100=total damage to plant; 0=no damage to plant)
Summary of the method: as §2

[11] = test system: redroot pigweed (Amaranthus retroflexus); test: Test G Post-Emergence Protocol; settings: Amaranthus retroflexus, post-emergence, 312 h; for pest or weed control at 15.625 g/ha: 15.625 g ai/ha, evaluated after 13 days (100=total damage to plant; 0=no damage to plant), read-out: Pigweed, Redroot damage rating; for pest or weed control at 62.5 g/ha: 62.5 g ai/ha, read-out: Pigweed, Redroot damage rating (100=total damage to plant; 0=no damage to plant); for pest or weed control at 62.5 g/ha / pest or weed control at 250 g/ha: evaluated after 13 days; for pest or weed control at 250 g/ha: 250 g ai/ha, read-out: damage to plant, Pigweed, Redroot (100=total damage to plant; 0=no damage to plant)
Summary of the method: as §2

[12] = test system: velvetleaf (Abutilon theophrasti); test: Test G Post-Emergence Protocol; settings: Abutilon theophrasti, post-emergence, 312 h; for pest or weed control at 15.625 g/ha: 15.625 g ai/ha, evaluated after 13 days (100=total damage to plant; 0=no damage to plant), read-out: Velvetleaf damage rating; for pest or weed control at 62.5 g/ha: 62.5 g ai/ha, read-out: Velvetleaf damage rating (100=total damage to plant; 0=no damage to plant); for pest or weed control at 62.5 g/ha / pest or weed control at 250 g/ha: evaluated after 13 days; for pest or weed control at 250 g/ha: 250 g ai/ha, read-out: damage to plant, Velvetleaf (100=total damage to plant; 0=no damage to plant)
Summary of the method: as §2

Cc1c(Cl)cccc1NC(=O)[C@@H]1C(=O)N(C)C[C@H]1c1ccc(C(F)(F)F)cc1 (racemic) [Compound 1607]
60%: pest or weed control at 250 g/ha [7] | plant injury at 250 g/ha (corn (Zea mays) [8]) | pest or weed control at 250 g/ha [10]
0%: pest or weed control at 15.625 g/ha [1] | plant injury at 15.625 g/ha (corn (Zea mays) [2]) | plant injury at 62.5 g/ha (corn (Zea mays) [2]) | pest or weed control at 15.625 g/ha [4] | pest or weed control at 15.625 g/ha [5] | pest or weed control at 15.625 g/ha [6] | pest or weed control at 62.5 g/ha [6] | pest or weed control at 15.625 g/ha [7] | plant injury at 15.625 g/ha (corn (Zea mays) [8]) | plant injury at 62.5 g/ha (corn (Zea mays) [8]) | pest or weed control at 15.625 g/ha [11]
70%: pest or weed control at 250 g/ha [11]
30%: pest or weed control at 250 g/ha [5] | pest or weed control at 62.5 g/ha [10] | pest or weed control at 62.5 g/ha [12]
80%: pest or weed control at 250 g/ha [1] | pest or weed control at 62.5 g/ha [3] | pest or weed control at 250 g/ha [3] | pest or weed control at 62.5 g/ha [9] | pest or weed control at 250 g/ha [9]
50%: pest or weed control at 15.625 g/ha [3] | pest or weed control at 62.5 g/ha [7] | pest or weed control at 15.625 g/ha [9]
40%: pest or weed control at 62.5 g/ha [1] | pest or weed control at 62.5 g/ha [11] | pest or weed control at 250 g/ha [12]
20%: pest or weed control at 250 g/ha [4] | pest or weed control at 62.5 g/ha [5] | pest or weed control at 250 g/ha [6] | pest or weed control at 15.625 g/ha [10]
10%: plant injury at 250 g/ha (corn (Zea mays) [2]) | pest or weed control at 62.5 g/ha [4] | pest or weed control at 15.625 g/ha [12]

COC(=O)c1nccc(NC(=O)[C@@H]2C(=O)N(C)C[C@H]2c2ccc(C(F)(F)F)cc2)n1 (racemic) [Compound 1537]
0%: pest or weed control at 15.625 g/ha [1] | pest or weed control at 62.5 g/ha [1] | pest or weed control at 250 g/ha [1] | plant injury at 15.625 g/ha (corn (Zea mays) [2]) | plant injury at 62.5 g/ha (corn (Zea mays) [2]) | plant injury at 250 g/ha (corn (Zea mays) [2]) | pest or weed control at 15.625 g/ha [3] | pest or weed control at 62.5 g/ha [3] | pest or weed control at 250 g/ha [3] | pest or weed control at 15.625 g/ha [4] | pest or weed control at 62.5 g/ha [4] | pest or weed control at 250 g/ha [4] | pest or weed control at 15.625 g/ha [5] | pest or weed control at 62.5 g/ha [5] | pest or weed control at 250 g/ha [5] | pest or weed control at 15.625 g/ha [6] | pest or weed control at 62.5 g/ha [6] | pest or weed control at 250 g/ha [6] | pest or weed control at 15.625 g/ha [7] | pest or weed control at 62.5 g/ha [7] | pest or weed control at 250 g/ha [7] | plant injury at 15.625 g/ha (corn (Zea mays) [8]) | plant injury at 62.5 g/ha (corn (Zea mays) [8]) | plant injury at 250 g/ha (corn (Zea mays) [8]) | pest or weed control at 15.625 g/ha [9] | pest or weed control at 62.5 g/ha [9] | pest or weed control at 250 g/ha [9] | pest or weed control at 15.625 g/ha [10] | pest or weed control at 62.5 g/ha [10] | pest or weed control at 250 g/ha [10] | pest or weed control at 15.625 g/ha [11] | pest or weed control at 62.5 g/ha [11] | pest or weed control at 250 g/ha [11] | pest or weed control at 15.625 g/ha [12] | pest or weed control at 62.5 g/ha [12] | pest or weed control at 250 g/ha [12]

Source: patent US12077503B2, “Substituted cyclic amides and their use as herbicides” (FMC CORPORATION, priority 2015, dated 2024)
